# Source: patent publication US20260022142A1, “MACROCYCLIC IMMUNOMODULATORS” (Bristol-Myers Squibb Company, priority 2022, published 2026)
# Bridge positions count the residues as written; N and C are the ends. Square brackets hold non-standard residues; d marks the D form. Peptide text beside a SMILES is read from it. * marks the point of attachment. ξ: configuration not given here. Phe(F5) = N[C@@H](Cc1c(F)c(F)c(F)c(F)c1F)C(=O)O; Phe(4-COOH) = N[C@@H](Cc1ccc(C(=O)O)cc1)C(=O)O; Bip = N[C@@H](Cc1ccc(-c2ccccc2)cc1)C(=O)O; Phe(3-Me) = Cc1cccc(C[C@H](N)C(=O)O)c1; Val(3-OH) = CC(C)(O)[C@H](N)C(=O)O; mTyr = N[C@@H](Cc1cccc(O)c1)C(=O)O; hArg = N=C(N)NCCCC[C@H](N)C(=O)O; 4Pal = N[C@@H](Cc1ccncc1)C(=O)O; Cha = N[C@@H](CC1CCCCC1)C(=O)O; Cit = NC(=O)NCCC[C@H](N)C(=O)O; Thr(3ξ) = CC(O)[C@H](N)C(=O)O; Carboxymethyl = O=C(O)C*; Orn = NCCC[C@H](N)C(=O)O; Aun = NCCCCCCCCCCC(=O)O; Dab = NCC[C@H](N)C(=O)O; Dap = NC[C@H](N)C(=O)O; AEEA = NCCOCCOCC(=O)O; Piv = CC(C)(C)C(=O)*
# Molecular target: T1, PD-1/PD-L1 interaction (PE-labeled human PD-L1-Ig binding to Jurkat cell line over-expressing human PD-1) (Homo sapiens, UniProt Q15116)
# T1 construct: expressed in transfected cells; host or cells: Jurkat
# Test: Jurkat-PD-1 Cell Binding High-Content Screening Assay (CBA)
# Format: cell-based
# Conditions: Jurkat cell line over-expressing human PD-1; PE-labeled PD-L1-Ig 20 nM final; read-out: Jurkat hPD1-PDL1 IC50
# Outline: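 Binding of fluorescent PD-L1-Ig (20 nM final) to Jurkat-PD-1 cells was measured by automated imaging after 1 h, following a 2 h compound pre-treatment at 37° C.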
# T1 sequence (Q15116 25-288): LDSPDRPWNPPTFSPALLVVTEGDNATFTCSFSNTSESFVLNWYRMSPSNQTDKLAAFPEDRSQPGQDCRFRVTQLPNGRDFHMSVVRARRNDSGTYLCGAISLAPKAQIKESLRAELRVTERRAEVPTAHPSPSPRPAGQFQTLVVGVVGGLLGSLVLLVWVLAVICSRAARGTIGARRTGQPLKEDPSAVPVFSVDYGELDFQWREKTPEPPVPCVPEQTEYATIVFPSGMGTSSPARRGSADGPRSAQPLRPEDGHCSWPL
row,IC50 [nM],Structure (SMILES)
1,331,Cc1cccc(C[C@@H]2NC(=O)[C@H](CC(=O)O)NC(=O)[C@H](Cc3ccc(OCC(=O)O)cc3)NC(=O)[C@H](CN)NC(=O)CSC[C@@H](C(=O)N[C@@H](CCN)C(=O)NCCOCCOCC(=O)NCCCCCCCCCCC(=O)O)NC(=O)[C@H](CCC(=O)O)NC(=O)[C@H](C(C)C)NC(=O)[C@H](Cc3c(F)c(F)c(F)c(F)c3F)NC(=O)[C@H](CCN)NC(=O)[C@@H](CC(C)C)NC(=O)[C@H](CCCN)NC(=O)[C@H](Cc3ccc(OCC(=O)O)cc3)NC(=O)[C@H](Cc3ccc(-c4ccccc4)cc3)NC(=O)[C@H](Cc3ccc(C(=O)O)cc3)NC2=O)c1 [Compound 1273] ({CH2CO}-[Dap]Y(Carboxymethyl)D[Phe(3-Me)][Phe(4-COOH)][Bip]Y(Carboxymethyl)[Orn][dL][Dab][Phe(F5)]VEC[Dab][AEEA][Aun]-OH; thioether N-14)
2,162,Cc1cccc(C[C@@H]2NC(=O)[C@H](CC(=O)O)NC(=O)[C@H](Cc3ccc(OCC(=O)O)cc3)NC(=O)[C@H](Cc3ccc(C(=O)O)cc3)NC(=O)CSC[C@@H](C(=O)N[C@@H](CCN)C(=O)NCCCCCCCCCCC(=O)O)NC(=O)[C@H]([C@@H](C)O)NC(=O)[C@H](C(C)C)NC(=O)[C@H](CC3CCCCC3)NC(=O)[C@H](CCN)NC(=O)[C@@H](CC(C)C)NC(=O)[C@H](CCCN)NC(=O)[C@H](CCCNC(N)=O)NC(=O)[C@H](Cc3ccc(-c4ccccc4)cc3)NC(=O)[C@H](C(C)C)NC2=O)c1 [Compound 2829] ({CH2CO}-[Phe(4-COOH)]Y(Carboxymethyl)D[Phe(3-Me)]V[Bip][Cit][Orn][dL][Dab][Cha]VTC[Dab][Aun]-OH; thioether N-14)
3,15.1,Cc1cccc(C[C@@H]2NC(=O)[C@H](CC(=O)O)NC(=O)[C@H](Cc3ccc(OCC(=O)O)cc3)NC(=O)[C@H](CCCNC(=N)N)NC(=O)CSC[C@@H](C(=O)N[C@@H](CCCCN)C(=O)NCCCCCCCCCCC(=O)O)NC(=O)[C@H](C(C)O)NC(=O)[C@H](C(C)C)NC(=O)[C@H](CC3CCCCC3)NC(=O)[C@H](CCN)NC(=O)[C@@H](CC(C)C)NC(=O)[C@H](CCCN)NC(=O)[C@H](Cc3ccc(O)cc3)NC(=O)[C@H](Cc3ccc(-c4ccccc4)cc3)NC(=O)[C@H](C(C)C)NC2=O)c1 (stereo partly drawn) [Compound 3473] ({CH2CO}-RY(Carboxymethyl)D[Phe(3-Me)]V[Bip]Y[Orn][dL][Dab][Cha]V[Thr(3ξ)]CK[Aun]-OH; thioether N-14)
4,17.6,Cc1cccc(C[C@@H]2NC(=O)[C@H](CC(=O)O)NC(=O)[C@H](Cc3ccc(OCC(=O)O)cc3)NC(=O)[C@H](CN)NC(=O)CSC[C@@H](C(=O)N[C@@H](CCN)C(=O)NCCCCCCCCCCC(=O)O)NC(=O)[C@H](CCC(N)=O)NC(=O)[C@H](C(C)C)NC(=O)[C@H](CC3CCCCC3)NC(=O)[C@H](CCN)NC(=O)[C@@H](CC(C)C)NC(=O)[C@H](CCCN)NC(=O)[C@H](Cc3ccc(OCC(=O)O)cc3)NC(=O)[C@H](Cc3ccc(-c4ccccc4)cc3)NC(=O)[C@H](Cc3ccc(OCC(=O)O)cc3)NC2=O)c1 [Compound 1247] ({CH2CO}-[Dap]Y(Carboxymethyl)D[Phe(3-Me)]Y(Carboxymethyl)[Bip]Y(Carboxymethyl)[Orn][dL][Dab][Cha]VQC[Dab][Aun]-OH; thioether N-14)
5,15.2,Cc1cccc(C[C@@H]2NC(=O)[C@H](CC(=O)O)NC(=O)[C@H](Cc3ccc(OCC(=O)O)cc3)NC(=O)[C@H](Cc3ccc(OCC(=O)O)cc3)NC(=O)CSC[C@@H](C(=O)NCC(=O)N[C@@H](CCCCN)C(=O)NCC(=O)NCCCCCCCCCCC(=O)O)NC(=O)[C@H](CO)NC(=O)[C@H](C(C)C)NC(=O)[C@H](CC3CCCCC3)NC(=O)[C@H](CCN)NC(=O)[C@@H](CC(C)C)NC(=O)[C@H](CCCN)NC(=O)[C@H](C(C)C)NC(=O)[C@H](Cc3ccc(-c4ccccc4)cc3)NC(=O)[C@H](CC(C)C)NC2=O)c1 [Compound 1073] ({CH2CO}-Y(Carboxymethyl)Y(Carboxymethyl)D[Phe(3-Me)]L[Bip]V[Orn][dL][Dab][Cha]VSCGKG[Aun]-OH; thioether N-14)
6,72.4,Cc1cccc(C[C@@H]2NC(=O)[C@H](CC(=O)O)NC(=O)[C@H](Cc3ccc(OCC(=O)O)cc3)NC(=O)[C@H](CN)NC(=O)CSC[C@@H](C(=O)N[C@H](CC(=O)NCCCCCCCCCCC(=O)O)C(N)=O)NC(=O)[C@H]([C@@H](C)O)NC(=O)[C@H](C(C)C)NC(=O)[C@H](CC3CCCCC3)NC(=O)[C@H](CCN)NC(=O)[C@@H](CC(C)C)NC(=O)[C@H](CCCN)NC(=O)[C@H](Cc3ccc(O)cc3)NC(=O)[C@H](Cc3ccc(-c4ccccc4)cc3)NC(=O)[C@H](C(C)C)NC2=O)c1 [Compound 2735] ({CH2CO}-[Dap]Y(Carboxymethyl)D[Phe(3-Me)]V[Bip]Y[Orn][dL][Dab][Cha]VTC[dD](Aun)-NH2; thioether N-14)
7,12.8,Cc1cccc(C[C@@H]2NC(=O)[C@H](CC(=O)O)NC(=O)[C@H](Cc3ccc(OCC(=O)O)cc3)NC(=O)[C@H](Cc3ccncc3)NC(=O)CSC[C@@H](C(=O)N[C@@H](CCN)C(=O)NCCCCCCCCCCC(=O)O)NC(=O)[C@H](CO)NC(=O)[C@H](C(C)(C)O)NC(=O)[C@H](CC3CCCCC3)NC(=O)[C@H](CCN)NC(=O)[C@@H](CC(C)C)NC(=O)[C@H](CCCN)NC(=O)[C@H](Cc3ccc(OCC(=O)O)cc3)NC(=O)[C@H](Cc3ccc(-c4ccccc4)cc3)NC(=O)[C@H](Cc3ccc(OCC(=O)O)cc3)NC2=O)c1 [Compound 2215] ({CH2CO}-[4Pal]Y(Carboxymethyl)D[Phe(3-Me)]Y(Carboxymethyl)[Bip]Y(Carboxymethyl)[Orn][dL][Dab][Cha][Val(3-OH)]SC[Dab][Aun]-OH; thioether N-14)

# The remaining lines, values behind:
row,Structure (SMILES),IC50 [nM]
1,Cc1cccc(C[C@@H]2NC(=O)[C@H](CC(=O)O)NC(=O)[C@H](Cc3ccc(OCC(=O)O)cc3)NC(=O)[C@H](CCCNC(=N)N)NC(=O)CSC[C@@H](C(=O)N[C@@H](CNC(=O)C(C)(C)C)C(=O)NCCCCCCCCCCC(=O)O)NC(=O)[C@H](C(C)O)NC(=O)[C@H](C(C)C)NC(=O)[C@H](CC3CCCCC3)NC(=O)[C@H](CCN)NC(=O)[C@@H](CC(C)C)NC(=O)[C@H](CCCN)NC(=O)[C@H](CCCNC(N)=O)NC(=O)[C@H](Cc3ccc(-c4ccccc4)cc3)NC(=O)[C@H](C(C)C)NC2=O)c1 (stereo partly drawn) [Compound 3510] ({CH2CO}-RY(Carboxymethyl)D[Phe(3-Me)]V[Bip][Cit][Orn][dL][Dab][Cha]V[Thr(3ξ)]C[Dap](Piv)[Aun]-OH; thioether N-14),55.3
2,CC(C)C[C@@H]1NC(=O)[C@H](Cc2c[nH]c3ccccc23)NC(=O)[C@H](CC(=O)O)NC(=O)[C@H](Cc2ccc(OCC(=O)O)cc2)NC(=O)[C@H](CCCCNC(=N)N)NC(=O)CSC[C@@H](C(=O)NCCOCCOCC(=O)N[C@@H](CCN)C(=O)NCCCCCCCCCCC(=O)O)NC(=O)[C@H](CCCCN)NC(=O)[C@H](C(C)C)NC(=O)[C@H](CC2CCCCC2)NC(=O)[C@H](CCN)NC(=O)[C@@H](C)NC(=O)[C@H](CCN)NC(=O)[C@H](C(C)C)NC(=O)[C@H](Cc2ccc(-c3ccccc3)cc2)NC1=O [Compound 3258] ({CH2CO}-[hArg]Y(Carboxymethyl)DWL[Bip]V[Dab][dA][Dab][Cha]VKC[AEEA][Dab][Aun]-OH; thioether N-14),37.3
3,Cc1cccc(C[C@@H]2NC(=O)[C@H](CC(=O)O)NC(=O)[C@H](Cc3ccc(OCC(=O)O)cc3)NC(=O)[C@H](CN)NC(=O)CSC[C@@H](C(=O)N[C@@H](C)C(=O)N[C@@H](CCC(=O)O)C(=O)NCCCCCCCCCCC(=O)O)NC(=O)[C@H]([C@@H](C)O)NC(=O)[C@H](C(C)C)NC(=O)[C@H](CC3CCCCC3)NC(=O)[C@H](CCN)NC(=O)[C@@H](CC(C)C)NC(=O)[C@H](CCCN)NC(=O)[C@H](CCC(=O)O)NC(=O)[C@H](Cc3ccc(-c4ccccc4)cc3)NC(=O)[C@H](C(C)C)NC2=O)c1 [Compound 1044] ({CH2CO}-[Dap]Y(Carboxymethyl)D[Phe(3-Me)]V[Bip]E[Orn][dL][Dab][Cha]VTCAE[Aun]-OH; thioether N-14),6.1
4,CC(C)C[C@H]1NC(=O)[C@H](CCCN)NC(=O)[C@H](Cc2ccc(O)cc2)NC(=O)[C@H](Cc2ccc(-c3ccccc3)cc2)NC(=O)[C@H](C(C)C)NC(=O)[C@H](Cc2c[nH]c3ccccc23)NC(=O)[C@H](CC(=O)O)NC(=O)[C@H](Cc2ccc(OCC(=O)O)cc2)NC(=O)[C@H](C(C)(C)O)NC(=O)CSC[C@@H](C(=O)N[C@@H](CCN)C(=O)NCCCCCCCCCCC(=O)O)NC(=O)[C@H](C(C)O)NC(=O)[C@H](C(C)C)NC(=O)[C@H](CC2CCCCC2)NC(=O)[C@H](CCN)NC1=O (stereo partly drawn) [Compound 3414] ({CH2CO}-[Val(3-OH)]Y(Carboxymethyl)DWV[Bip]Y[Orn][dL][Dab][Cha]V[Thr(3ξ)]C[Dab][Aun]-OH; thioether N-14),73.7
5,CC(C)C[C@H]1NC(=O)[C@H](CCCN)NC(=O)[C@H](C(C)C)NC(=O)[C@H](Cc2ccc(-c3ccccc3)cc2)NC(=O)[C@H](C(C)C)NC(=O)[C@H](Cc2c[nH]c3ccccc23)NC(=O)[C@H](CC(=O)O)NC(=O)[C@H](Cc2ccc(OCC(=O)O)cc2)NC(=O)[C@H](CN)NC(=O)CSC[C@@H](C(=O)N[C@@H](CCCN)C(=O)NCCCCCCCCCCC(=O)O)NC(=O)[C@H](CCC(N)=O)NC(=O)[C@H](C(C)C)NC(=O)[C@H](CC2CCCCC2)NC(=O)[C@H](Cc2c[nH]cn2)NC1=O [Compound 2794] ({CH2CO}-[Dap]Y(Carboxymethyl)DWV[Bip]V[Orn][dL]H[Cha]VQC[Orn][Aun]-OH; thioether N-14),28
6,CC(C)C[C@H]1NC(=O)[C@H](CCCN)NC(=O)[C@H](C(C)C)NC(=O)[C@H](Cc2ccc(-c3ccccc3)cc2)NC(=O)[C@H](C(C)C)NC(=O)[C@H](Cc2cccc(O)c2)NC(=O)[C@H](CC(=O)O)NC(=O)[C@H](Cc2ccc(OCC(=O)O)cc2)NC(=O)[C@H](CN)NC(=O)CSC[C@@H](C(=O)N[C@@H](CCN)C(=O)NCCCCCCCCCCC(=O)O)NC(=O)[C@H](CCCCN)NC(=O)[C@H](C(C)C)NC(=O)[C@H](CC2CCCCC2)NC(=O)[C@H](CCN)NC1=O [Compound 2029] ({CH2CO}-[Dap]Y(Carboxymethyl)D[mTyr]V[Bip]V[Orn][dL][Dab][Cha]VKC[Dab][Aun]-OH; thioether N-14),8
